Test results published in US11951131B2, “Anti-SLAMF7 chimeric antigen receptors” (The United States of America, as represented by the …, priority 2018, dated 2024).

Tests used:
Type in all cases: cell-based, human
[1] = tested on: SLAMF7-RPMI; assay: IFN-gamma ELISA, CAR T cells cultured overnight with SLAMF7-RPMI target cells
Excerpt: (§1) MM.1S is a SLAMF7^+ multiple myeloma cell line that was obtained from American Type Culture Collection (ATCC). A549 is a BCMA-negative lung cancer cell line (ATCC). TC71 is a BCMA-negative sarcoma cell line. CCRF-CEM, 293T, and A549 are SLAMF7-negative cell lines (ATCC). COL0207, HepG2, U251, Panc10.05, and TC71 are […] that were kind gifts from Dr. Steven Rosenberg, National Cancer Institute. SLAMF7-K562 are K562 cells (ATCC) which were transduced with the gene for full-length SLAMF7. SLAMF7-RPMI are RPMI8226 cells (ATCC) which were transduced with the gene for full-length SLAMF7. NGFR-K562 are K562 cells which were transduced with the gene for low-affinity nerve growth factor (Kochenderfer et al., J. Immunother., 32(7): 689-702 (2009)). All of the human samples mentioned were obtained from patients enrolled in IRB-approved clinical trials at the National Cancer Institute.
(§2) One-hundred thousand SLAMF7^+ or SLAMF7-negative target cells were combined with 100,000 CAR-transduced T cells in duplicate wells of a 96 well round bottom plate in 200 µL of AIM V™ medium (Invitrogen) plus 5% human serum. The plates were incubated at 37° C. for 18-20 hours. Following the incubation, ELISAs (enzyme-linked immunosorbent assays) for IFNγ were performed by using standard methods.
The T cells columns indicate whether T cells were transduced with Luc90-CD828Z, Luc63-CD828Z, or were untransduced. The % CAR^+ in Table B-1 was determined by staining the T cells with Protein L. Except for the % CAR^+ column, all values are pg/mL of IFN-gamma. T cells that were either untransduced or transduced with one of the indicated CARs were cultured with target cells overnight and a standard IFN-gamma ELISA was performed on the culture supernatant.
All values are pg/mL of IFN-gamma. T cells that were either untransduced or transduced with one of the indicated CARs were cultured with target cells overnight, and a standard IFN-gamma ELISA was performed on the culture supernatant.
The values in the cells are pg/mL of IFN-gamma. T cells that were either untransduced or transduced with one of the indicated CARs were cultured with target cells overnight, and a standard IFN-gamma ELISA was performed on the culture supernatant. The concentrations of 0, 50, or 200 ng/mL at the top of each column indicates the concentration of soluble SLAMF7 added to all T cell plus target cell overnight cultures in that column. The soluble SLAMF7 was added at the beginning of the overnight culture.

[2] = tested on: COLO 205; assay: IFN-gamma ELISA, CAR T cells with COLO 205 target cells; conditions: Table B-1
Excerpt: as §1
(§3) One-hundred thousand SLAMF7^+ or SLAMF7-negative target cells were combined with 100,000 CAR-transduced T cells in duplicate wells of a 96 well round bottom plate in 200 µL of AIM V™ medium (Invitrogen) plus 5% human serum. […]
(§4) The T cells columns indicate whether T cells were transduced with Luc90-CD828Z, Luc63-CD828Z, or were untransduced. The % CAR^+ in Table B-1 was determined by staining the T cells with Protein L. Except for the % CAR^+ column, all values are pg/mL of IFN-gamma. […]

[3] = tested on: U251; assay: IFN-gamma ELISA, CAR T cells with U251 target cells; conditions: Table B-2
Excerpt: as §1, §3, §4

[4] = tested on: TC71; assay: IFN-gamma ELISA, CAR T cells with TC71 target cells; conditions: Table B-2
Excerpt: as §1, §3, §4

[5] = tested on: A549; assay: IFN-gamma ELISA, CAR T cells with A549 target cells; conditions: Table B-2; SLAMF7-negative
Excerpt: as §1, §3, §4

[6] = tested on: SLAMF7^+ target cells; assay: IFN-gamma ELISA and functional assays
Protocol: as §2
CAR-expressing T cells cultured alone produced very low levels of IFNγ. IFNγ production of T cells expressing a CAR with a 4-1BB moiety, Luc90-CD8BBZ, was compared to IFNγ production of T cells expressing Luc90-CD828Z (Table C). […] Low levels of soluble SLAMF7 are found in the serum of some MM patients (see Tai, et al., Blood, 112(4): 1329-1337 (2008)). IFNγ ELISA assays were conducted to determine if adding SLAMF7 to cultures of anti-SLAMF7 CAR T cells plus target cells could block IFNγ release by the CAR T cells (Table D). IFNγ release by the CART cells was used as a measure recognition of the SLAMF7^+ target cells by the CAR T cells. The concentrations of soluble SLAMF7 added to the cultures were similar to those found in the blood of patients. Blocking of SLAMF7^+ target cell recognition by the soluble SLAMF7 was not observed. Also, activation of the anti-SLAMF7 CAR T cells by the soluble SLAMF7 was not observed.

Q: “Luc90-CD828Z: anti-SLAMF7 CAR (SEQ ID NO: 27): murine Luc90 scFv, human CD8a hinge and TM, CD28 and CD3ζ domains; tested as transduced T cells” was tested. Which “IFN-gamma, target cells SLAMF7-RPMI” value ([1]; Table B-1, overnight culture, ELISA on supernatant) did it give?
A: The value was 21293 pg/mL.

Q: And the “IFN-gamma, target cells SLAMF7-RPMI8226” value ([1]; Table C, overnight culture)?
A: The value was 20832 pg/mL.

Q: What about the “IFN-gamma, target cells SLAMF7 RPMI 0 ng/ml” value ([1]; Table D, soluble SLAMF7 added 0 ng/ml) of the same substance?
A: Its value is 23538 pg/mL.

Q: What about the “IFN-gamma, target cells SLAMF7 RPMI 50 ng/ml” value ([1]; Table D, soluble SLAMF7 added 50 ng/ml) of the same substance?
A: Its value is 23.315 ng/mL.

Q: And the “IFN-gamma, target cells CD319 RPMI 200 ng/ml” value ([1]; Table D, soluble SLAMF7 added 200 ng/ml)?
A: The value was 21301 pg/mL.

Q: And the “IFN-gamma, target cells COLO 205” value [2]?
A: The value was 19 pg/mL.

Q: And the “IFN-gamma, target cells U251” value [3]?
A: Its value is 27 pg/mL.

Q: And the “IFN-gamma, target cells TC71” value [4]?
A: Its value is 82 pg/mL.

Q: And the “IFN-gamma, target cells A549” value [5]?
A: The value was 79 pg/mL.

Q: What about the “function of T cells expressing the CAR, overall comparison” value ([6]; ELISA assays and CD107a degranulation experiments, versus huLuc63-CD828Z) of the same substance?
A: Its value is “superior”.

Q: And the “SLAMF7-specific IFNγ release, comparison of CARs” value ([6]; Luc90-CD828Z versus huLuc63-CD828Z, most experiments)?
A: Its value is “greater”.
